From patent US20250367129A1, “Lipid Compounds and Uses Thereof” (Pfizer Inc., priority 2022, published 2025)

Legend:
Hela cells = assay: In vitro expression of novel ionizable lipid nanoparticles, high content imaging (CA HA modFlu mRNA); assay type: cell-based; conditions: LNP with CA HA modFlu mRNA
Experimental: (§1) Plated Hek293T or Hela cells were dosed with lipid nanoparticles in a total volume of 40 μl cell culture media and incubated overnight at 37° C. and 5% CO2. After fixation with 4% paraformaldehyde in PBS cells were washed in PBS containing 0.3% Triton-X100 and 3% BSA (w/v), followed by nuclear staining with Hoechst and antibody staining for the encoded gene of interest. Nuclear count and identification of cells stained positive for gene of interest was done on an Opera Phenix high content imager (PerkinElmer, USA).
(§2) Lipid nanoparticles were prepared and tested according to the general procedures described in U.S. Pat. No. 9,737,619 (PCT Pub. No. WO2015/199952) and U.S. Pat. No. 10,166,298 (PCT Pub. No. WO 2017/075531) and PCT Pub. No. WO2020/146805. The novel ionizable lipids of the invention, cholesterol, distearoylphosphatidylcholine (DSPC) and ALC-0159 2-[(polyethylene glycol)-2000]-N,N ditetradecylacetamide were solubilized in ethanol at a molar ratio of about 46.3:42.7:9.4:1.6. Lipid nanoparticles were made by mixing the lipids containing organic phase with the mRNA containing aqueous phase using an N:P ratio of about 6:1. The mRNA was diluted in buffer. Syringe pumps were used to mix the ethanolic lipid solution with the mRNA aqueous solution. The ethanol was then removed, and the external buffer replaced with another buffer (e.g., Tris) by dialysis. Finally, the lipid nanoparticles were filtered.
(§3) Total RNA concentration and encapsulation efficiency was assessed using the RiboGreen RNA quantitation assay. RNA integrity pre and post formulation was monitored by Agilent Fragment Analyzer capillary gel electrophoresis. Malvern Zetasizer dynamic light scattering (DLS) was used to determine LNP size and polydispersity index (PDI). In vitro expression of the novel ionizable lipid nanoparticles was assessed in HEK293F and Hela cells similar to described in Example 72. Nuclear count and identification of cells stained positive for gene of interest was done on an Opera Phenix high content imager (PerkinElmer, USA).

HEK293F cells = assay: as above; assay type: cell-based; conditions: LNP with CA HA modFlu mRNA
Experimental: as §1, §2, §3

[1] = Encapsulation efficiency, RiboGreen RNA quantitation assay (CA HA modFlu mRNA LNPs); assay type: physicochemical; conditions: LNP with CA HA modFlu mRNA
Experimental: as §2, §3

[2] = LNP size and polydispersity index by Malvern Zetasizer dynamic light scattering (CA HA modFlu mRNA LNPs); assay type: physicochemical; conditions: DLS; for Size (nm): LNP of the ionizable lipid:cholesterol:DSPC:ALC-0159 about 46.3:42.7:9.4:1.6, N:P about 6:1, CA HA modFlu mRNA; for PDI: LNP with CA HA modFlu mRNA
Experimental: as §2, §3

CCCCCCCCC(CCCCCC)C(=O)OCC(COC(=O)C(CCCCCC)CCCCCCCC)N1CCC2(CCN(C(C)CCCO)CC2)CC1 (centres unmarked) [Example 21, 2-(9-(5-hydroxypentan-2-yl)-3,9-diazaspiro[5.5]undecan-3-yl)propane-1,3-diyl bis(2-hexyldecanoate)]
EC50 Hela (ng/well) (Hela cells): 0.41 ng/well
EC50 Hek293F (ng/well) (HEK293F cells): 0.28 ng/well
EE % [1]: 99%
Size (nm) [2]: 159 nm
PDI [2]: 0.064

CCCCCCCC(CCCCCCC)C(=O)OCC(COC(=O)C(CCCCCCC)CCCCCCC)N1CCC2(CCN(CCCCO)C2)CC1 [Example 22, 2-(2-(4-hydroxybutyl)-2,8-diazaspiro[4.5]decan-8-yl)propane-1,3-diyl bis(2-heptylnonanoate)]
EC50 Hela (ng/well) (Hela cells): 0.39 ng/well
EC50 Hek293F (ng/well) (HEK293F cells): 0.14 ng/well
EE % [1]: 99%
Size (nm) [2]: 107 nm
PDI [2]: 0.065

CCCCCCCCC(CCCCCC)C(=O)OCC(COC(=O)C(CCCCCC)CCCCCCCC)N1CCC2(CCN(CCCCO)CC2)CC1 (centres unmarked) [Example 23, 2-(9-(4-hydroxybutyl)-3,9-diazaspiro[5.5]undecan-3-yl)propane-1,3-diyl bis(2-hexyldecanoate)]
EC50 Hela (ng/well) (Hela cells): 1.2 ng/well
EC50 Hek293F (ng/well) (HEK293F cells): 0.47 ng/well
EE % [1]: 100%
Size (nm) [2]: 144 nm
PDI [2]: 0.090

CCCCCCCCC(CCCCCCCC)C(=O)OCC(COC(=O)C(CCCCCCCC)CCCCCCCC)N1CCC2(CCN(CCCCO)CC2)CC1 [Example 24, 2-(9-(4-hydroxybutyl)-3,9-diazaspiro[5.5]undecan-3-yl)propane-1,3-diyl bis(2-octyldecanoate)]
EC50 Hela (ng/well) (Hela cells): 0.72 ng/well
EC50 Hek293F (ng/well) (HEK293F cells): 0.48 ng/well
EE % [1]: 99%
Size (nm) [2]: 82 nm
PDI [2]: 0.072

CCCCCCCC(CCCCCCC)C(=O)OCC(COC(=O)C(CCCCCCC)CCCCCCC)N1CCC2(CCN(CCCCCO)CC2)CC1 [Example 25, 2-(9-(5-hydroxypentyl)-3,9-diazaspiro[5.5]undecan-3-yl)propane-1,3-diyl bis(2-heptylnonanoate)]
EC50 Hela (ng/well) (Hela cells): 0.61 ng/well
EC50 Hek293F (ng/well) (HEK293F cells): 0.42 ng/well
EE % [1]: 99%
Size (nm) [2]: 137 nm
PDI [2]: 0.040

CCCCCCCCC(CCCCCCC)C(=O)OCC(COC(=O)C(CCCCCCC)CCCCCCCC)N1CCC2(CCN(CCCCO)CC2)CC1 (centres unmarked) [Example 26, 2-(9-(4-hydroxybutyl)-3,9-diazaspiro[5.5]undecan-3-yl)propane-1,3-diyl bis(2-heptyldecanoate)]
EC50 Hela (ng/well) (Hela cells): 1.8 ng/well
EC50 Hek293F (ng/well) (HEK293F cells): 1.6 ng/well
EE % [1]: 100%
Size (nm) [2]: 96 nm
PDI [2]: 0.030

CCCCCCCCC(CCCC)C(=O)OCC(COC(=O)C(CCCC)CCCCCCCC)N1CCC2(CCN(CCCCO)CC2)CC1 (centres unmarked) [Example 27, 2-(9-(4-hydroxybutyl)-3,9-diazaspiro[5.5]undecan-3-yl)propane-1,3-diyl bis(2-butyldecanoate)]
EC50 Hela (ng/well) (Hela cells): 12.5 ng/well
EC50 Hek293F (ng/well) (HEK293F cells): 35.9 ng/well
EE % [1]: 97%
Size (nm) [2]: 74 nm
PDI [2]: 0.095

CCCCCCCCC(CCCCCC)CC(=O)OCC(COC(=O)CC(CCCCCC)CCCCCCCC)N1CCC2(CCN(CCCCO)CC2)CC1 (centres unmarked) [Example 28, 2-(9-(4-hydroxybutyl)-3,9-diazaspiro[5.5]undecan-3-yl)propane-1,3-diyl bis(3-hexylundecanoate)]
EC50 Hela (ng/well) (Hela cells): 6.4 ng/well
EC50 Hek293F (ng/well) (HEK293F cells): 9.9 ng/well
EE % [1]: 99%
Size (nm) [2]: 96 nm
PDI [2]: 0.025

CCCCCCCCC(CCCCC)C(=O)OCC(COC(=O)C(CCCCC)CCCCCCCC)N1CCC2(CCN(CCCCO)CC2)CC1 (centres unmarked) [Example 29, 2-(9-(4-hydroxybutyl)-3,9-diazaspiro[5.5]undecan-3-yl)propane-1,3-diyl bis(2-pentyldecanoate)]
EC50 Hela (ng/well) (Hela cells): 1.0 ng/well
EC50 Hek293F (ng/well) (HEK293F cells): 0.82 ng/well
EE % [1]: 100%
Size (nm) [2]: 130 nm
PDI [2]: 0.050

CCCCCCCCC(CC1CCC1)C(=O)OCC(COC(=O)C(CCCCCCCC)CC1CCC1)N1CCC2(CCN(CCCCO)CC2)CC1 (centres unmarked) [Example 30, 2-(9-(4-hydroxybutyl)-3,9-diazaspiro[5.5]undecan-3-yl)propane-1,3-diyl bis(2-(cyclobutylmethyl)decanoate)]
EC50 Hela (ng/well) (Hela cells): 3.3 ng/well
EC50 Hek293F (ng/well) (HEK293F cells): 12.6 ng/well
EE % [1]: 99%
Size (nm) [2]: 102 nm
PDI [2]: 0.030

CCCCCCCCCCCCC(CCCCCCC)C(=O)OCC(COC(=O)C(CCCCCCC)CCCCCCCCCCCC)N1CCC2(CCN(CCCCO)CC2)CC1 (centres unmarked) [Example 31, 2-(9-(4-hydroxybutyl)-3,9-diazaspiro[5.5]undecan-3-yl)propane-1,3-diyl bis(2-heptyltetradecanoate)]
EC50 Hela (ng/well) (Hela cells): 2.9 ng/well
EC50 Hek293F (ng/well) (HEK293F cells): 1.7 ng/well
EE % [1]: 99%
Size (nm) [2]: 121 nm
PDI [2]: 0.150

CCCCCCCCC(CC1CCCC1)C(=O)OCC(COC(=O)C(CCCCCCCC)CC1CCCC1)N1CCC2(CCN(CCCCO)CC2)CC1 (centres unmarked) [Example 32, 2-(9-(4-hydroxybutyl)-3,9-diazaspiro[5.5]undecan-3-yl)propane-1,3-diyl bis(2-(cyclopentylmethyl)decanoate)]
EC50 Hela (ng/well) (Hela cells): 0.91 ng/well
EC50 Hek293F (ng/well) (HEK293F cells): 0.96 ng/well
EE % [1]: 100%
Size (nm) [2]: 132 nm
PDI [2]: 0.060

CCCCCCCCC(CCCCCC)C(=O)OCC(COC(=O)C(CCCCCC)CCCCCCCC)N1CCC2(CCN(CCCCO)C2)C1 (centres unmarked) [Example 33, 2-(7-(4-hydroxybutyl)-2,7-diazaspiro[4.4]nonan-2-yl)propane-1,3-diyl bis(2-hexyldecanoate)]
EC50 Hela (ng/well) (Hela cells): 0.29 ng/well
EC50 Hek293F (ng/well) (HEK293F cells): 0.22 ng/well
EE % [1]: 99%
Size (nm) [2]: 115 nm
PDI [2]: 0.090

CCCCCCCCC(CCCCCC)C(=O)OCC(COC(=O)C(CCCCCC)CCCCCCCC)N1CC2(CCN(CCCCO)CC2)C1 (centres unmarked) [Example 34, 2-(7-(4-hydroxybutyl)-2,7-diazaspiro [3.5]nonan-2-yl)propane-1,3-diyl bis(2-hexyldecanoate)]
EC50 Hela (ng/well) (Hela cells): 3.8 ng/well
EC50 Hek293F (ng/well) (HEK293F cells): 2.1 ng/well
EE % [1]: 99%
Size (nm) [2]: 130 nm
PDI [2]: 0.040

CCCCCCCCC(CC1CC=CC1)C(=O)OCC(COC(=O)C(CCCCCCCC)CC1CC=CC1)N1CCC2(CCN(CCCCO)CC2)CC1 (centres unmarked) [Example 35, 2-(9-(4-hydroxybutyl)-3,9-diazaspiro[5.5]undecan-3-yl)propane-1,3-diyl bis(2-(cyclopent-3-en-1-ylmethyl)decanoate)]
EC50 Hela (ng/well) (Hela cells): 1.4 ng/well
EC50 Hek293F (ng/well) (HEK293F cells): 21.3 ng/well
EE % [1]: 99%
Size (nm) [2]: 102 nm
PDI [2]: 0.040

CCCCCCCCC(CCC1CCC1)C(=O)OCC(COC(=O)C(CCCCCCCC)CCC1CCC1)N1CCC2(CCN(CCCCO)CC2)CC1 (centres unmarked) [Example 36, 2-(9-(4-hydroxybutyl)-3,9-diazaspiro[5.5]undecan-3-yl)propane-1,3-diyl bis(2-(2-cyclobutylethyl)decanoate)]
EC50 Hela (ng/well) (Hela cells): 2.4 ng/well
EC50 Hek293F (ng/well) (HEK293F cells): 1.9 ng/well
EE % [1]: 99%
Size (nm) [2]: 136 nm
PDI [2]: 0.059

CCCCCCCCC(CC1CCCCC1)C(=O)OCC(COC(=O)C(CCCCCCCC)CC1CCCCC1)N1CCC2(CCN(CCCCO)CC2)CC1 (centres unmarked) [Example 37, 2-(9-(4-hydroxybutyl)-3,9-diazaspiro[5.5]undecan-3-yl)propane-1,3-diyl bis(2-(cyclohexylmethyl)decanoate)]
EC50 Hela (ng/well) (Hela cells): 0.90 ng/well
EC50 Hek293F (ng/well) (HEK293F cells): 0.67 ng/well
EE % [1]: 99%
Size (nm) [2]: 143 nm
PDI [2]: 0.070

CCCCC(CCCC)C(CCCC)CCC(=O)OCC(COC(=O)CCC(CCCC)C(CCCC)CCCC)N1CCC2(CCN(CCCCO)CC2)CC1 (centres unmarked) [Example 38, 2-(9-(4-hydroxybutyl)-3,9-diazaspiro[5.5]undecan-3-yl)propane-1,3-diyl bis(4,5-dibutylnonanoate)]
EC50 Hela (ng/well) (Hela cells): 7.0 ng/well
EC50 Hek293F (ng/well) (HEK293F cells): 28.1 ng/well
EE % [1]: 100%
Size (nm) [2]: 146 nm
PDI [2]: 0.100

CCCCCCC(CCCC)(CCCC)CC(=O)OCC(COC(=O)CC(CCCC)(CCCC)CCCCCC)N1CCC2(CCN(CCCCO)CC2)CC1 [Example 39, 2-(9-(4-hydroxybutyl)-3,9-diazaspiro[5.5]undecan-3-yl)propane-1,3-diyl bis(3,3-dibutylnonanoate)]
EC50 Hela (ng/well) (Hela cells): 3.4 ng/well
EC50 Hek293F (ng/well) (HEK293F cells): 4.1 ng/well
EE % [1]: 100%
Size (nm) [2]: 134 nm
PDI [2]: 0.080
